Measured values from patent US20230129485A1, “SYSTEM AND METHOD FOR DETERMINING MATERIAL PROPERTIES OF MOLECULAR SYSTEMS FROM AN AB-INITIO PARAMETERIZED FORCE-FIELD” (InterX, Inc., priority 2021, published 2023).
Like-named read-outs stand apart in the source and are kept apart here.

Columns and labels:
[1] = Free energy of hydration predicted with the QM-parameterized force field model (ARROW FF), classical MD and PIMD simulation in a water box; settings: for Arrow PIMD8 Error: absolute error vs Exp (hydration); for Arrow error: Table 5, error of Arrow PIMD8 hydration free energy vs experiment
In short: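 Classical and PIMD runs (MTS integrator, MTTK barostat at 1 atm) followed minimization and 50 ps equilibration, with 1 ns NPT production per window. Fifteen unequally spaced lambda windows removed all solute-solvent interactions simultaneously in a 32 Å water box. Hydration free energy computed by Bennett acceptance ratio and thermodynamic integration.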

[2] = Free energy of hydration by COSMO implicit solvent model (MolPro ver. 2012); settings: absolute error vs Exp (hydration)
In short: (§1)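 COSMO solvation free energies were calculated for the molecule set with MolPro because no original-COSMO free energy data were available. SMD and PCM hydration free energies were obtained as received. SMD, PCM and COSMO-RS values cover only molecules that overlap with those computed using the QM-parameterized force field model.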

[3] = Free energy of hydration by Solvation Model Dielectric (SMD) implicit solvent model; settings: absolute error vs Exp (hydration)
In short: as §1

[4] = Free energy of hydration by Polarizable Continuum Model (PCM); settings: absolute error vs Exp (hydration)
In short: as §1

[5] = Free energy of hydration by COSMO-RS
In short: as §1

[6] = Free energy of hydration by Free Energy Machine Learning Model (FML); settings: absolute error vs Exp (hydration)
Description: Machine learning models can be used for free energy determination.

[7] = experimental, cited from earlier work; for Exp (hydration): Table 5
[8] = implicit solvent model, values received; cited from earlier work
[9] = implicit solvent model, values received; cited from earlier work; remark: listed apart in the source
[10] = Free energy of solvation in cyclohexane predicted with the QM-parameterized force field model (ARROW FF), MD and PIMD; settings: Table 4; for CHEX Arrow MD Error: error of MD cyclohexane solvation free energy vs experiment; for CHEX Arrow PIMD4 Error: error of PIMD4 cyclohexane solvation free energy vs experiment
In short: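 Solute–cyclohexane interactions decoupled over 15 λ points with soft-core scaling, in MD and path-integral simulations under NPT at 1 atm using PME electrostatics and 9 Å cutoffs. Each window had 50 ps equilibration and 1 ns production; free energies from BAR and TI.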

[11] = CHEX/H2O partition coefficient (log D) predicted with the QM-parameterized force field model (ARROW FF)
In short: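 Cyclohexane/water partition coefficients were predicted by molecular simulation with a QM-parameterized force field, with bonded force constants and equilibrium values fitted to MP2/aug-cc-pVTZ energies. Solutes carried neutral functional groups, and results from four independent groups were averaged.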

[12] = Free energy of hydration predicted by General Amber Force Field (GAFF), from literature; settings: Table 5; error of GAFF hydration free energy vs experiment
[13] = Free energy of hydration predicted by polarizable AMOEBA force field, from literature; settings: Table 5; error of AMOEBA hydration free energy vs experiment
[14] = experimental, cited from earlier work
[15] = Table 5; free energy of hydration, GAFF prediction taken from literature; cited from earlier work
[16] = Table 5; free energy of hydration, AMOEBA prediction taken from literature; cited from earlier work
[17] = CHEX/H2O partition coefficient, experimental, cited from earlier work; for Exp (log D): Table 3; for logD Exp (logD): Table 4
[18] = Table 3, absolute error of MD hydration free energy vs experiment
[19] = Table 3, absolute error of PIMD8 hydration free energy vs experiment
[20] = Table 3, free energy of hydration
[21] = Table 4, error of MD hydration free energy vs experiment
[22] = Table 4, error of PIMD8 hydration free energy vs experiment
[23] = Table 4, error of MD logD vs experiment
[24] = Table 4, error of PIMD logD vs experiment
[25] = Table 4, neutral amino-acid analogues
[26] = Table 3, free energy of solvation in cyclohexane
[27] = Table 4, solvation free energy in cyclohexane

CCCCCO [1-Pentanol]
water Arrow MD Error [1, 18]: 1.18 kcal/mol
water Arrow PIMD8 Error [1, 19]: 0.05 kcal/mol
Arrow PIMD8 Error [1]: 0.05 kcal/mol
COSMO/Molpro Error [2]: 2.21 kcal/mol
SMD Error [3]: 0.47 kcal/mol
PCM Error [4]: 1.17 kcal/mol
COSMO-RS error [5]: 0.11 kcal/mol
FML error [6]: 0.30 kcal/mol
water Exp (hydration) [7, 20]: -4.47 kcal/mol
SMD free energy of hydration [8]: -4.00 kcal/mol
PCM free energy of hydration [9]: -3.30 kcal/mol

CCC(C)O (stereo not drawn) [2-Butanol]
water Arrow MD Error [1, 18]: 1.41 kcal/mol
water Arrow PIMD8 Error [1, 19]: 0.08 kcal/mol
Arrow PIMD8 Error [1]: 0.08 kcal/mol
COSMO/Molpro Error [2]: 1.11 kcal/mol
COSMO-RS error [5]: 0.77 kcal/mol
FML error [6]: 0.61 kcal/mol
water Exp (hydration) [7, 20]: -4.58 kcal/mol

CCCC(C)O (stereo not drawn) [2-Pentanol]
water Arrow MD Error [1, 18]: 1.68 kcal/mol
water Arrow PIMD8 Error [1, 19]: 0.08 kcal/mol
Arrow PIMD8 Error [1]: 0.08 kcal/mol
COSMO/Molpro Error [2]: 1.38 kcal/mol
FML error [6]: 0.40 kcal/mol
water Exp (hydration) [7, 20]: -4.39 kcal/mol

CCC(O)CC [3-Pentanol]
water Arrow MD Error [1, 18]: 1.36 kcal/mol
water Arrow PIMD8 Error [1, 19]: 0.15 kcal/mol
Arrow PIMD8 Error [1]: 0.15 kcal/mol
COSMO/Molpro Error [2]: 1.01 kcal/mol
FML error [6]: 0.58 kcal/mol
water Exp (hydration) [7, 20]: -4.35 kcal/mol

CCCC [Butane]
water Arrow MD Error [1, 18]: 0.70 kcal/mol
water Arrow PIMD8 Error [1, 19]: 0.04 kcal/mol
water Arrow MD Error [1, 21]: 0.70 kcal/mol
water Arrow PIMD8 Error [1, 22]: 0.04 kcal/mol
Arrow error [1]: 0.04 kcal/mol
Arrow PIMD8 Error [1]: 0.04 kcal/mol
CHEX Arrow MD Error [10]: 0.46 kcal/mol
CHEX Arrow PIMD4 Error [10]: 0.20 kcal/mol
log D Arrow MD Error ([11]; Table 3, absolute error of MD log D vs experiment): 0.18
log D Arrow PIMD Error ([11]; Table 3, absolute error of PIMD log D vs experiment): 0.17
logD Arrow MD Error [11, 23]: 0.18
logD Arrow PIMD Error [11, 24]: 0.17
GAFF error [12]: 0.44 kcal/mol
AMOEBA error [13]: 0.99 kcal/mol
COSMO/Molpro Error [2]: 2.65 kcal/mol
SMD Error [3]: 0.10 kcal/mol
PCM Error [4]: 2.30 kcal/mol
COSMO-RS error [5]: 0.03 kcal/mol
water Exp (hydration) [7, 20]: 2.10 kcal/mol
water Exp (hydration) [7, 25]: 2.10 kcal/mol
Exp (hydration) ([7]; free energy of hydration): 2.10 kcal/mol
CHEX Exp (solvation) [14, 26]: -2.72 kcal/mol
CHEX Exp (solvation) [14, 27]: -2.72 kcal/mol
GAFF [15]: 2.54 kcal/mol
AMOEBA [16]: 1.11 kcal/mol
SMD free energy of hydration [8]: 2.00 kcal/mol
PCM free energy of hydration [9]: -0.20 kcal/mol
Exp (log D) [17]: 3.54
logD Exp (logD) [17]: 3.54

C1CC1 [Cyclopropane]
water Arrow MD Error [1, 18]: 0.30 kcal/mol
water Arrow PIMD8 Error [1, 19]: 0.29 kcal/mol
Arrow PIMD8 Error [1]: 0.29 kcal/mol
COSMO/Molpro Error [2]: 2.05 kcal/mol
SMD Error [3]: 0.65 kcal/mol
PCM Error [4]: 1.35 kcal/mol
COSMO-RS error [5]: 0.40 kcal/mol
FML error [6]: 0.76 kcal/mol
water Exp (hydration) [7, 20]: 0.75 kcal/mol
SMD free energy of hydration [8]: 0.10 kcal/mol
PCM free energy of hydration [9]: -0.60 kcal/mol

C1CCCC1 [Cyctopentane]
Arrow PIMD8 Error [1]: 0.12 kcal/mol
SMD Error [3]: 0.10 kcal/mol
PCM Error [4]: 1.40 kcal/mol
COSMO-RS error [5]: 0.17 kcal/mol
FML error [6]: 0.32 kcal/mol
SMD free energy of hydration [8]: 1.30 kcal/mol
PCM free energy of hydration [9]: -0.20 kcal/mol

CCSC [EthylMethylSulfide]
water Arrow MD Error [1, 18]: 0.47 kcal/mol
water Arrow PIMD8 Error [1, 19]: 0.11 kcal/mol
water Arrow MD Error [1, 21]: 0.47 kcal/mol
water Arrow PIMD8 Error [1, 22]: 0.11 kcal/mol
Arrow error [1]: 0.11 kcal/mol
Arrow PIMD8 Error [1]: 0.11 kcal/mol
CHEX Arrow MD Error [10]: 0.83 kcal/mol
CHEX Arrow PIMD4 Error [10]: 0.51 kcal/mol
log D Arrow MD Error [11]: 0.27
log D Arrow PIMD Error [11]: 0.29
logD Arrow MD Error [11]: 0.27
logD Arrow PIMD Error [11]: 0.29
GAFF error [12]: 1.84 kcal/mol
AMOEBA error [13]: 0.48 kcal/mol
COSMO/Molpro Error [2]: 2.70 kcal/mol
water Exp (hydration) [7, 20]: -1.5 kcal/mol
water Exp (hydration) [7, 25]: -1.5 kcal/mol
Exp (hydration) ([7]; free energy of hydration): -1.50 kcal/mol
CHEX Exp (solvation) [14, 26]: -3.78 kcal/mol
CHEX Exp (solvation) [14, 27]: -3.78 kcal/mol
GAFF [15]: 0.34 kcal/mol
AMOEBA [16]: -1.98 kcal/mol
Exp (log D) [17]: 1.67
logD Exp (logD) [17]: 1.67

CS [MethaneThiol]
water Arrow MD Error [1, 18]: 0.79 kcal/mol
water Arrow PIMD8 Error [1, 19]: 0.43 kcal/mol
water Arrow MD Error [1, 21]: 0.79 kcal/mol
Arrow error [1]: 0.43 kcal/mol
Arrow PIMD8 Error [1]: 0.43 kcal/mol
CHEX Arrow MD Error [10]: 0.39 kcal/mol
CHEX Arrow PIMD4 Error [10]: 0.30 kcal/mol
logD Arrow MD Error [11, 23]: 0.29
logD Arrow PIMD Error [11, 24]: 0.09
GAFF error [12]: 0.41 kcal/mol
AMOEBA error [13]: 0.98 kcal/mol
COSMO/Molpro Error [2]: 2.71 kcal/mol
SMD Error [3]: 0.42 kcal/mol
PCM Error [4]: 0.88 kcal/mol
water Exp (hydration) [7, 20]: -1.219 kcal/mol
water Exp (hydration) [7, 25]: -1.219 kcal/mol
Exp (hydration) ([7]; free energy of hydration): -1.24 kcal/mol
Exp (hydration) free energy of hydration [7]: -1.22 kcal/mol
CHEX Exp (solvation) [14, 27]: -2.46 kcal/mol
GAFF [15]: -0.83 kcal/mol
AMOEBA [16]: -0.26 kcal/mol
SMD free energy of hydration [8]: -0.80 kcal/mol
PCM free energy of hydration [9]: -2.10 kcal/mol
logD Exp (logD) [17]: 0.91

CO [Methanol]
water Arrow MD Error [1, 18]: 0.28 kcal/mol
water Arrow PIMD8 Error [1, 19]: 0.35 kcal/mol
water Arrow MD Error [1, 21]: 0.28 kcal/mol
water Arrow PIMD8 Error [1, 22]: 0.35 kcal/mol
Arrow error [1]: 0.33 kcal/mol
Arrow PIMD8 Error [1]: 0.35 kcal/mol
CHEX Arrow MD Error [10]: 0.42 kcal/mol
CHEX Arrow PIMD4 Error [10]: 0.24 kcal/mol
log D Arrow MD Error [11]: 0.10
log D Arrow PIMD Error [11]: 0.43
logD Arrow MD Error [11]: 0.10
logD Arrow PIMD Error [11]: 0.43
GAFF error [12]: 0.74 kcal/mol
AMOEBA error [13]: 0.32 kcal/mol
COSMO/Molpro Error [2]: 1.37 kcal/mol
SMD Error [3]: 0.91 kcal/mol
PCM Error [4]: 1.91 kcal/mol
COSMO-RS error [5]: 0.18 kcal/mol
CHEX Exp (solvation) [14, 26]: -1.29 kcal/mol
CHEX Exp (solvation) [14, 27]: -1.29 kcal/mol
GAFF [15]: -4.37 kcal/mol
AMOEBA [16]: -4.79 kcal/mol
Exp (log D) [17]: −2.80
logD Exp (logD) [17]: −2.80

Cc1ccccc1 [Toluene]
water Arrow MD Error [1, 18]: 0.83 kcal/mol
water Arrow PIMD8 Error [1, 19]: 0.10 kcal/mol
water Arrow MD Error [1, 21]: 0.83 kcal/mol
water Arrow PIMD8 Error [1, 22]: 0.10 kcal/mol
Arrow error [1]: 0.10 kcal/mol
Arrow PIMD8 Error [1]: 0.10 kcal/mol
CHEX Arrow MD Error [10]: 0.94 kcal/mol
CHEX Arrow PIMD4 Error [10]: 0.62 kcal/mol
GAFF error [12]: 0.18 kcal/mol
AMOEBA error [13]: 0.64 kcal/mol
COSMO/Molpro Error [2]: 2.41 kcal/mol
SMD Error [3]: 0.59 kcal/mol
PCM Error [4]: 0.71 kcal/mol
COSMO-RS error [5]: 0.12 kcal/mol
water Exp (hydration) [7, 20]: -0.89 kcal/mol
water Exp (hydration) [7, 25]: -0.89 kcal/mol
Exp (hydration) ([7]; free energy of hydration): -0.89 kcal/mol
CHEX Exp (solvation) [14, 26]: -4.90 kcal/mol
CHEX Exp (solvation) [14, 27]: -4.90 kcal/mol
GAFF [15]: -0.71 kcal/mol
AMOEBA [16]: -1.53 kcal/mol
SMD free energy of hydration [8]: -0.30 kcal/mol
PCM free energy of hydration [9]: -1.60 kcal/mol

CC=O [acetaldehyde]
water Arrow MD Error [1, 18]: 0.18 kcal/mol
water Arrow PIMD8 Error [1, 19]: 0.27 kcal/mol
Arrow PIMD8 Error [1]: 0.27 kcal/mol
COSMO/Molpro Error [2]: 3.97 kcal/mol
SMD Error [3]: 0.30 kcal/mol
PCM Error [4]: 0.20 kcal/mol
COSMO-RS error [5]: 0.18 kcal/mol
FML error [6]: 0.03 kcal/mol
